In patent US8658565B2 (priority 2010, dated 2014):
Like-named read-outs stand apart in the source and are kept apart here.

How the values were obtained:
Assay type in all cases: in vivo
Sphaerotheca fuliginea = assay: Sphaerotheca test (cucumbers)/preventive, Example F: biological control agent sprayed first, (I-1) 4 h later; details: (I-1) alone 50 ppm a.i., evaluated 7 days after inoculation
Protocol: (§1) To produce a suitable preparation of active compound, 1 part by weight of the dithiino-tetracarboximide is mixed with 24.5 parts by weight of acetone, 24.5 parts by weight of dimethylacetamide and 1 part by weight of emulsifier alkylaryl polyglycol ether. The concentrate is diluted with water to the desired concentration.
(§2) Serenade® WPO, a wettable powder formulation containing the bacteria Bacillus subtilis (variety QST 713), is mixed and diluted with water to the desired concentration.
(§3) Young plants are sprayed with the aqueous preparation of the biological control agents, e.g. Serenade® WPO, at the stated rate of application. 4 hours later and after the spray coating has dried on, the plants are sprayed with the preparation of (I-1) 2,6-dimethyl-1H,5H-[1,4]dithiino[2,3-c:5,6-c′]dipyrrole-1,3,5,7(2H,6H)-tetrone at the stated rate of application. The next day the plants are inoculated with an aqueous spore suspension of Sphaerotheca fuliginea. The plants are then placed in a greenhouse at approximately 23° C. and a relative atmospheric humidity of approximately 70%. The test is evaluated 7 days after the inoculation. 0% means an efficacy which corresponds to that of the untreated control, while an efficacy of 100% means that no disease is observed.

Venturia inaequalis [1] = assay: Venturia test (apples)/preventive, Example G: biological control agent sprayed first, (I-1) 4 h later; details: (I-1) alone 12.5 ppm a.i., evaluated 10 days after inoculation
Protocol: as §1, §2
Young plants are sprayed with the aqueous preparation of the biological control agents, e.g. Serenade® WPO, at the stated rate of application. 4 hours later and after the spray coating has dried on, the plants are sprayed with the preparation of (I-1) 2,6-dimethyl-1H,5H-[1,4]dithiino[2,3-c:5,6-c′]dipyrrole-1,3,5,7(2H,6H)-tetrone at the stated rate of application. The next day the plants are inoculated with an aqueous conidia suspension of the causal agent of apple scab (Venturia inaequalis) and then remain for 1 day in an incubation cabinet at approximately 20° C. and a relative atmospheric humidity of 100%. The plants are then placed in a greenhouse at approximately 21° C. and a relative atmospheric humidity of approximately 90%. The test is evaluated 10 days after the inoculation. […]

Alternaria solani [2] = assay: Alternaria test (tomatoes)/preventive, Example H: biological control agent sprayed first, (I-1) 4 h later; details: (I-1) alone 25 ppm a.i., evaluated 3 days after inoculation
Protocol: as §1, §2
as §3, with “of Alternaria solani.” for “of Sphaerotheca fuliginea.”, “in an incubation cabinet” for “in a greenhouse”, “approximately 20°” for “approximately 23°”, “of 100%.” for “of approximately 70%.”, “evaluated 3” for “evaluated 7”, “untreated control” for “untreated control,”

Phytophthora infestans [3] = details: tomatoes, evaluated 3 days after inoculation
Sphaerotheca fidiginea = assay: Sphaerotheca test (cucumbers)/preventive, Example B: (I-1) sprayed first, biological control agent 4 h later; details: (I-1) alone 50 ppm a.i., evaluated 7 days after inoculation
Protocol: as §1, §2
Young plants are sprayed with the preparation of (I-1) 2,6-dimethyl-1H,5H-[1,4]dithiino[…]dipyrrole-1,3,5,7(2H,6H)-tetrone at the stated rate of application. 4 hours later and after the spray coating has dried on, the plants are sprayed with the aqueous preparation of the biological control agents, e.g. Serenade® WPO, at the stated rate of application. The next day the plants are inoculated with an aqueous spore suspension of Sphaerotheca fidiginea. The plants are then placed in a greenhouse at approximately 23° C. and a relative atmospheric humidity of approximately 70%. The test is evaluated 7 days after the inoculation. 0% means an efficacy which corresponds to that of the untreated control, while an efficacy of 100% means that no disease is observed.

Botrytis cinerea = assay: Botrytis test (beans)/preventive, Example I: biological control agent sprayed first, (I-1) 4 h later; details: (I-1) alone 12.5 ppm a.i., lesion size evaluated 2 days after inoculation
Protocol: as §1
BioNem WP®, a wettable powder formulation containing the bacteria Bacillus firmus, is mixed and diluted with water to the desired concentration.
Young plants are sprayed with the aqueous preparation of the biological control agents, e.g. BioNem WP®, at the stated rate of application. 4 hours later and after the spray coating has dried on, the plants are sprayed with the preparation of (I-1) 2,6-dimethyl-1H,5H-[1,4]dithiino[2,3-c:5,6-c′]dipyrrole-1,3,5,7(2H,6H)-tetrone at the stated rate of application. The next day the plants are inoculated by placing 2 small pieces of agar covered with growth of Botrytis cinerea on each leaf. The inoculated plants are placed in a darkened chamber at 20° C. and a relative atmospheric humidity of 100%. 2 days after the inoculation, the size of the lesions on the leaves is evaluated. 0% means an efficacy which corresponds to that of the untreated control, while an efficacy of 100% means that no disease is observed.

Alternaria solani [4] = assay: Alternaria test (tomatoes)/preventive, Example D: (I-1) sprayed first, biological control agent 4 h later; details: (I-1) alone 25 ppm a.i., evaluated 3 days after inoculation
Protocol: as §1
Shemer, a water dispersible granule formulation containing the yeast Metschnikowia fructicola, is mixed and diluted with water to the desired concentration.
Young plants are sprayed with the preparation of (I-1) 2,6-dimethyl-1H,5H-[1,4]diithiino[2,3-c:5,6-c′]dipyrrole-1,3,5,7(2H,6H)-tetrone at the stated rate of application. 4 hours later and after the spray coating has dried on, the plants are sprayed with the aqueous preparation of the biological control agents, e.g. Shemer, at the stated rate of application. The next day the plants are inoculated with an aqueous spore suspension of Alternaria solani. The plants are then placed in an incubation cabinet at approximately 20° C. and a relative atmospheric humidity of 100%. The test is evaluated 3 days after the inoculation. 0% means an efficacy which corresponds to that of the untreated control while an efficacy of 100% means that no disease is observed.

Venturia inaequalis [5] = assay: Venturia test (apples)/preventive, Example C: (I-1) sprayed first, biological control agent 4 h later; details: (I-1) alone 25 ppm a.i., evaluated 10 days after inoculation
Protocol: as §1, §2
Young plants are sprayed with the preparation of (I-1) 2,6-dimethyl-1H,5H-[1,4]dithiino[…]dipyrrole-1,3,5,7(2H,6H)-tetrone at the stated rate of application. 4 hours later and after the spray coating has dried on, the plants are sprayed with the aqueous preparation of the biological control agents, e.g. Serenade® WPO, at the stated rate of application. The next day the plants are inoculated with an aqueous conidia suspension of the causal agent of apple scab (Venturia inaequalis) and then remain for 1 day in an incubation cabinet at approximately 20° C. and a relative atmospheric humidity of 100%. The plants are then placed in a greenhouse at approximately 21° C. and a relative atmospheric humidity of approximately 90%. The test is evaluated 10 days after the inoculation. […]

Phytophthora infestans [6] = details: tomatoes; (I-1) alone 50 ppm a.i.; evaluated 3 days after inoculation

For Cn1c(=O)c2sc3c(=O)n(C)c(=O)c3sc2c1=O [(I-1), 2,6-dimethyl-1H,5H-[1,4]dithiino[2,3-c:5,6-c′]dipyrrole-1,3,5,7(2H,6H)-tetrone], the “Efficacy in % found” value (Sphaerotheca fuliginea) was 0%, the “Efficacy in % found” value (Venturia inaequalis [1]) was 48% and the “Efficacy in % found” value (Alternaria solani [2]) was 21%. For the same compound, the “Efficacy in % found” value (Phytophthora infestans [3]; (I-1) alone 12.5 ppm a.i.) was 15%, the “Efficacy in % found” value (Phytophthora infestans [3]; (I-1) alone 25 ppm a.i.) was 40% and the “Efficacy in % found” value (Sphaerotheca fidiginea) was 0%. The “Efficacy in % found” value (Botrytis cinerea) was 4%, the “Efficacy in % found” value (Alternaria solani [4]) was 35% and the “Efficacy in % found” value (Venturia inaequalis [5]) was 49%. For the same compound, the “Efficacy in % found” value (Phytophthora infestans [6]) was 84%.
